{"source": "paper PMC5490409", "about": "“Anti-Mycobacterial Evaluation of 7-Chloro-4-Aminoquinolines and Hologram Quantitative Structure–Activity Relationship (HQSAR) Modeling of Amino–Imino Tautomers” (Pharmaceuticals, 2017)", "key": {"[1]": {"system": "Mycobacterium tuberculosis wild-type H37Rv strain", "settings": "cited from earlier work; for pMIC (pMICExp): –Log of MIC on M. tuberculosis"}, "[2]": {"system": "Mycobacterium tuberculosis wild-type H37Rv strain (ATCC 27294)", "assay": "microplate Alamar blue assay (MABA), anti-mycobacterial activity", "format": "cell-based"}, "[3]": {"system": "macrophage cell line J774 (ATCC TIB-67)"}, "in vitro": {"assay": "in vitro", "settings": "mouse"}, "[4]": {"assay": "Mosmann's MTT cell viability (cytotoxicity) assay", "settings": "mouse"}, "[5]": {"system": "MTB wild-type H37Rv strain", "parameters": "method as in PMID 15591164", "settings": "cited from earlier work"}, "MTB MDR strains": {"system": "MTB MDR strains", "settings": "cited from earlier work"}, "[6]": {"settings": "M. tuberculosis H37Rv, MABA, read-out: MIC"}, "[7]": {"settings": "series D, –Log of MIC of Table 1, read-out: pMIC (pMICExp) (converted)"}}, "note": "Like-named read-outs stand apart in the source and are kept apart here."}
{"smiles": "Clc1ccc2c(NCCNc3ccccc3)ccnc2c1", "note": "[A05]", "values": [{"measurement": "pMIC (pMICExp)", "setting": "[1]; series A", "result": 3.77}]}
{"smiles": "Oc1ccc(O)c(/C=N/Nc2ccnc3cc(Cl)ccc23)c1", "note": "[D04]", "values": [{"measurement": "MIC", "setting": "[2]; [6]", "result": 79.7, "unit": "µM"}, {"measurement": "MIC", "setting": "[2]; [7]", "result": 79.4, "unit": "µM"}, {"measurement": "Cell Viability (%)/Dose (µg/mL) 2.5", "setting": "[3]", "result": "did not show a significant cytotoxic profile"}, {"measurement": "viability at 48 h, 2.5 µg/mL", "setting": "in vitro", "result": 100, "unit": "%"}, {"measurement": "viability at 48 h, 25 µg/mL", "setting": "in vitro", "result": 100, "unit": "%"}, {"measurement": "viability at 48 h, 100 µg/mL", "setting": "in vitro", "result": 70, "unit": "%"}]}
{"smiles": "Clc1ccc2c(N/N=C/c3cccc(Br)c3)ccnc2c1", "note": "[B04]", "values": [{"measurement": "pMIC (pMICExp)", "setting": "[1]; series B", "result": 5.06}]}
{"smiles": "Clc1ccc2c(N/N=C/c3cccs3)ccnc2c1", "note": "[C04]", "values": [{"measurement": "pMIC (pMICExp)", "setting": "[1]; series C", "result": 4.96}]}
{"smiles": "Clc1ccc2c(N/N=C/c3ccc(Br)cc3)ccnc2c1", "note": "[B05]", "values": [{"measurement": "pMIC (pMICExp)", "setting": "[1]; series B", "result": 5.16}]}
{"smiles": "Clc1ccc2c(N/N=C/c3ccn[nH]3)ccnc2c1", "note": "[C06]", "values": [{"measurement": "pMIC (pMICExp)", "setting": "[1]; series C", "result": 4.94}]}
{"smiles": "CC[C@@H](CO)NCCN[C@@H](CC)CO", "note": "[EMB, ethambutol]", "values": [{"measurement": "MIC", "setting": "[2]; [6]", "result": 15.3, "unit": "µM"}, {"measurement": "viability at 48 h, 2.5 µg/mL", "setting": "[4]", "result": 100, "unit": "%"}, {"measurement": "viability at 48 h, 25 µg/mL", "setting": "[4]", "result": 93, "unit": "%"}, {"measurement": "viability at 48 h, 100 µg/mL", "setting": "[4]", "result": 82, "unit": "%"}]}
{"smiles": "ClCCCNc1ccnc2cc(Cl)ccc12", "note": "[A13]", "values": [{"measurement": "pMIC (pMICExp)", "setting": "[1]; series A", "result": 3.71}]}
{"smiles": "CCCNCCNc1ccnc2cc(Cl)ccc12", "note": "[A03]", "values": [{"measurement": "pMIC (pMICExp)", "setting": "[1]; series A", "result": 3.42}]}
{"smiles": "Clc1ccc2c(N/N=C/c3ccco3)ccnc2c1", "note": "[C02]", "values": [{"measurement": "pMIC (pMICExp)", "setting": "[1]; series C", "result": 4.94}]}
{"smiles": "ClCCNc1ccnc2cc(Cl)ccc12", "note": "[A01]", "values": [{"measurement": "pMIC (pMICExp)", "setting": "[1]; series A", "result": 4.29}]}
{"smiles": "CC(C)Nc1ccnc2cc(Cl)ccc12", "note": "[A11]", "values": [{"measurement": "pMIC (pMICExp)", "setting": "[1]; series A", "result": 3.64}]}
{"smiles": "COc1ccc(C=NNc2ccnc3cc(Cl)ccc23)c(Cl)c1O", "note": "[D09]", "values": [{"measurement": "MIC", "setting": "[2]; [6]", "result": 17.3, "unit": "µM"}, {"measurement": "MIC", "setting": "[2]; [7]", "result": 16.2, "unit": "µM"}, {"measurement": "viability at 48 h, 2.5 µg/mL", "setting": "in vitro", "result": 80, "unit": "%"}, {"measurement": "viability at 48 h, 25 µg/mL", "setting": "in vitro", "result": 55, "unit": "%"}, {"measurement": "viability at 48 h, 100 µg/mL", "setting": "in vitro", "result": 48, "unit": "%"}]}
{"smiles": "Oc1ccc(C=NNc2ccnc3cc(Cl)ccc23)cc1O", "note": "[D03]", "values": [{"measurement": "MIC", "setting": "[2]; [6]", "result": 319, "unit": "µM"}, {"measurement": "MIC", "setting": "[2]; [7]", "result": 316, "unit": "µM"}, {"measurement": "viability at 48 h, 2.5 µg/mL", "setting": "in vitro", "result": 78, "unit": "%"}, {"measurement": "viability at 48 h, 25 µg/mL", "setting": "in vitro", "result": 35, "unit": "%"}, {"measurement": "viability at 48 h, 100 µg/mL", "setting": "in vitro", "result": 72, "unit": "%"}]}
{"smiles": "COc1cccc(/C=N/Nc2ccnc3cc(Cl)ccc23)c1OC", "note": "[D05]", "values": [{"measurement": "MIC", "setting": "[2]; [6]", "result": 7.3, "unit": "µM"}, {"measurement": "MIC", "setting": "[2]; [7]", "result": 7.24, "unit": "µM"}, {"measurement": "Cell Viability (%)/Dose (µg/mL) 2.5", "setting": "[3]", "result": "did not show a significant cytotoxic profile"}, {"measurement": "viability at 48 h, 2.5 µg/mL", "setting": "in vitro", "result": 98, "unit": "%"}, {"measurement": "viability at 48 h, 25 µg/mL", "setting": "in vitro", "result": 97, "unit": "%"}, {"measurement": "viability at 48 h, 100 µg/mL", "setting": "in vitro", "result": 85, "unit": "%"}]}
{"smiles": "NCCCCCCCCCCNc1ccnc2cc(Cl)ccc12", "note": "[A08]", "values": [{"measurement": "MIC", "setting": "[1]; series A lead, H37Rv", "result": 9.3, "unit": "µM"}, {"measurement": "pMIC (pMICExp)", "setting": "[1]; series A", "result": 5.03}]}
{"smiles": "NCCCCCCCCNc1ccnc2cc(Cl)ccc12", "note": "[A07]", "values": [{"measurement": "pMIC (pMICExp)", "setting": "[1]; series A", "result": 4.69}]}
{"smiles": "CCCNc1ccnc2cc(Cl)ccc12", "note": "[A10]", "values": [{"measurement": "pMIC (pMICExp)", "setting": "[1]; series A", "result": 3.64}]}
{"smiles": "COc1ccc(OC)c(/C=N/Nc2ccnc3cc(Cl)ccc23)c1", "note": "[D07]", "values": [{"measurement": "MIC", "setting": "[2]; [6]", "result": 18.3, "unit": "µM"}, {"measurement": "MIC", "setting": "[2]; read-out: pMIC (pMICExp)", "result": 18.2, "unit": "µM"}, {"measurement": "viability at 48 h, 2.5 µg/mL", "setting": "in vitro", "result": 40, "unit": "%"}, {"measurement": "viability at 48 h, 25 µg/mL", "setting": "in vitro", "result": 22, "unit": "%"}, {"measurement": "viability at 48 h, 100 µg/mL", "setting": "in vitro", "result": 47, "unit": "%"}]}
{"smiles": "Clc1ccc2c(N/N=C/c3ccccn3)ccnc2c1", "note": "[C07]", "values": [{"measurement": "pMIC (pMICExp)", "setting": "[1]; series C", "result": 4.35}]}
{"smiles": "Clc1ccc2c(N/N=C/c3c(Cl)cccc3Cl)ccnc2c1", "note": "[D01]", "values": [{"measurement": "MIC", "setting": "[2]; [6]", "result": 143, "unit": "µM"}, {"measurement": "MIC", "setting": "[2]; [7]", "result": 141, "unit": "µM"}, {"measurement": "Cell Viability (%)/Dose (µg/mL) 2.5", "setting": "[3]", "result": "did not show a significant cytotoxic profile"}, {"measurement": "viability at 48 h, 2.5 µg/mL", "setting": "in vitro", "result": 100, "unit": "%"}, {"measurement": "viability at 48 h, 25 µg/mL", "setting": "in vitro", "result": 90, "unit": "%"}, {"measurement": "viability at 48 h, 100 µg/mL", "setting": "in vitro", "result": 86, "unit": "%"}]}
{"smiles": "COc1nc2ccc(Br)cc2cc1[C@@H](c1ccccc1)[C@@](O)(CCN(C)C)c1cccc2ccccc12", "note": "[bedaquiline]", "values": [{"measurement": "MIC", "setting": "[5]", "result": "≤ 0.1", "unit": "µM"}, {"measurement": "MIC", "setting": "MTB MDR strains", "result": "≤ 0.5", "unit": "µM"}]}
{"smiles": "COc1ccc(/C=N/Nc2ccnc3cc(Cl)ccc23)cc1OC", "note": "[D06]", "values": [{"measurement": "MIC", "setting": "[2]; [6]", "result": 7.3, "unit": "µM"}, {"measurement": "MIC", "setting": "[2]; [7]", "result": 7.24, "unit": "µM"}, {"measurement": "viability at 48 h, 2.5 µg/mL", "setting": "in vitro", "result": 65, "unit": "%"}, {"measurement": "viability at 48 h, 25 µg/mL", "setting": "in vitro", "result": 8, "unit": "%"}, {"measurement": "viability at 48 h, 100 µg/mL", "setting": "in vitro", "result": 20, "unit": "%"}]}
{"smiles": "[N-]=[N+]=NCCNc1ccnc2cc(Cl)ccc12", "note": "[A02]", "values": [{"measurement": "pMIC (pMICExp)", "setting": "[1]; series A", "result": 3.69}]}
{"smiles": "O=[N+]([O-])c1ccc(/C=N/Nc2ccnc3cc(Cl)ccc23)o1", "note": "[C01]", "values": [{"measurement": "pMIC (pMICExp)", "setting": "[1]; series C", "result": 5.10}]}
{"smiles": "CNc1ccnc2cc(Cl)ccc12", "note": "[A09]", "values": [{"measurement": "pMIC (pMICExp)", "setting": "[1]; series A", "result": 3.28}]}
{"smiles": "COc1cc(/C=N/Nc2ccnc3cc(Cl)ccc23)cc(OC)c1OC", "note": "[D08]", "values": [{"measurement": "MIC", "setting": "[2]; [6]", "result": 16.8, "unit": "µM"}, {"measurement": "MIC", "setting": "[2]; [7]", "result": 17, "unit": "µM"}, {"measurement": "viability at 48 h, 2.5 µg/mL", "setting": "in vitro", "result": 93, "unit": "%"}, {"measurement": "viability at 48 h, 25 µg/mL", "setting": "in vitro", "result": 90, "unit": "%"}, {"measurement": "viability at 48 h, 100 µg/mL", "setting": "in vitro", "result": 69, "unit": "%"}]}
{"smiles": "NCCCCCCNc1ccnc2cc(Cl)ccc12", "note": "[A06]", "values": [{"measurement": "pMIC (pMICExp)", "setting": "[1]; series A", "result": 4.05}]}
{"smiles": "CCCCNc1ccnc2cc(Cl)ccc12", "note": "[A12]", "values": [{"measurement": "pMIC (pMICExp)", "setting": "[1]; series A", "result": 4.27}]}
{"smiles": "Oc1cccc(/C=N/Nc2ccnc3cc(Cl)ccc23)c1O", "note": "[D02]", "values": [{"measurement": "MIC", "setting": "[2]; [6]", "result": 79.7, "unit": "µM"}, {"measurement": "MIC", "setting": "[2]; [7]", "result": 79.4, "unit": "µM"}, {"measurement": "viability at 48 h, 2.5 µg/mL", "setting": "in vitro", "result": 83, "unit": "%"}, {"measurement": "viability at 48 h, 25 µg/mL", "setting": "in vitro", "result": 40, "unit": "%"}, {"measurement": "viability at 48 h, 100 µg/mL", "setting": "in vitro", "result": 83, "unit": "%"}]}
{"smiles": "Clc1ccc2c(N/N=C/c3ccc[nH]3)ccnc2c1", "note": "[C05]", "values": [{"measurement": "pMIC (pMICExp)", "setting": "[1]; series C", "result": 4.94}]}
{"smiles": "O=[N+]([O-])c1ccc(/C=N/Nc2ccnc3cc(Cl)ccc23)s1", "note": "[C03]", "values": [{"measurement": "pMIC (pMICExp)", "setting": "[1]; series C", "result": 5.43}]}
